Experiments:
in vitro = settings: human, uninfected MT-4 cells, CC50 (nM), same protocol as Test A, CellTiter-Glo
How it was run: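 Cytoprotection read-out: CellTiter-Glo chemiluminescence after 5 days at 37 °C of HIV-IIIb-infected MT-4 cells (m.o.i. 0.003) with compound in 10-point 3-fold dilutions, quadruplicate, 10% FBS. Cytotoxicity (CC50) measured identically without virus.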

HIV-IIIb = assay: Test A: Antiviral assay in MT4 cells; type: cell-based, HIV-1; settings: MT-4 cells infected with HIV-IIIb, 5 days, CellTiter-Glo; for inhibition at 2 µM: Human immunodeficiency virus 1, IIIB, MT4, 120 h, read-out: % inhibition at 2 μM, percent inhibition of virus-induced cell killing, from dose response curve at 2 uM drug

## O=C(Cn1nc(C(F)F)c2c1C(F)(F)C1CC21)N[C@@H](Cc1cc(F)cc(F)c1)c1ncccc1-c1ccc(S(=O)(=O)N2CCCCC2)cc1 (stereo partly drawn) [Example 71, (S)—N-(1-(3-(4-((piperidin-1-yl)sulfonyl)phenyl)-pyridin-2-yl)-2-(3,5-difluorophenyl)ethyl)-2-(3-(difluoromethyl)-5,6-dihydro-4,5-(methano)-6,6-difluoro-cyclopenta[c]pyrazol-1(4H)-yl)acetamide]
In vitro
  CC50 at 5 days: > 53200 nM
HIV-IIIb
  inhibition at 2 µM: 64%

## O=C(Cn1nc(C(F)F)c2c1C(F)(F)C1CC21)N[C@@H](Cc1cc(F)cc(F)c1)c1ncccc1-c1ccc(OC(F)(F)F)cc1 (stereo partly drawn) [Example 230, 2-(3-(difluoromethyl)-5,5-difluoro-3b,4,4a,5-tetrahydro-1H-cyclopropa[3,4]cyclopenta[1,2-c]pyrazol-1-yl)-N—((S)-2-(3,5-difluorophenyl)-1-(3-(4-(trifluoromethoxy)phenyl)pyridin-2-yl)ethyl)acetamide]
In vitro
  CC50 at 5 days: 14000 nM
HIV-IIIb
  inhibition at 2 µM: 66%

## COc1ccc(-c2cccnc2[C@H](Cc2cccc(F)c2)NC(=O)Cc2c[nH]c3ccc(O)cc23)cc1 [Example 28, (S)—N-(2-(3-fluorophenyl)-1-(3-(4-methoxyphenyl)pyridin-2-yl)ethyl)-2-(5-hydroxy-1H-indol-3-yl)acetamide]
In vitro
  CC50 at 5 days: 26000 nM
HIV-IIIb
  inhibition at 2 µM: 93%

## CN1Cc2c(C(F)(F)F)nn(CC(=O)N[C@@H](Cc3cc(F)cc(F)c3)c3ncccc3-c3ccc(F)c(C(N)=O)c3)c2C1 [Example 235, (S)-5-(2-(2-(3,5-difluorophenyl)-1-(2-(5-methyl-3-(trifluoromethyl)-5,6-dihydropyrrolo[3,4-c]pyrazol-1(4H)-yl)acetamido)ethyl)pyridin-3-yl)-2-fluorobenzamide]
In vitro
  CC50 at 5 days: > 53200 nM
HIV-IIIb
  inhibition at 2 µM: 12%

## NC(=O)c1cc(-c2cccnc2[C@H](Cc2cc(F)cc(F)c2)NC(=O)Cn2nc(C(F)(F)F)c3c2C(O)CC3)ccc1F (stereo partly drawn) [Example 391, 5-(2-((1S)-2-(3,5-difluorophenyl)-1-(2-(6-hydroxy-3-(trifluoromethyl)-5,6-dihydrocyclopenta[c]pyrazol-1(4H)-yl)acetamido)ethyl)pyridin-3-yl)-2-fluorobenzamide]
In vitro
  CC50 at 5 days: 44800 nM
HIV-IIIb
  inhibition at 2 µM: 60%

## NC(=O)c1cc(-c2cccnc2[C@H](Cc2cc(F)cc(F)c2)NC(=O)Cn2nc(C(F)(F)OCc3ccccn3)c3c2CCCC3)ccc1OCc1ccccn1 [Example 129, (S)-5-(2-(1-(2-(3-(difluoro(pyridin-2-ylmethoxy)methyl)-4,5,6,7-tetrahydro-1H-indazol-1-yl)acetamido)-2-(3,5-difluorophenyl)ethyl)pyridin-3-yl)-2-(pyridin-2-ylmethoxy)benzamide]
In vitro
  CC50 at 5 days: 10200 nM
HIV-IIIb
  inhibition at 2 µM: 0%

## CC(C)(C)OC(=O)N1CCc2c(c(C(F)(F)F)nn2CC(=O)N[C@@H](Cc2cc(F)cc(F)c2)c2ncccc2-c2ccc(F)c(C(N)=O)c2)C1 [Example 274, (S)-tert-butyl 1-(2-(1-(3-(3-carbamoyl-4-fluorophenyl)pyridin-2-yl)-2-(3,5-difluorophenyl)ethylamino)-2-oxoethyl)-3-(trifluoromethyl)-6,7-dihydro-1H-pyrazolo[4,3-c]pyridine-5(4H)-carboxylate]
In vitro
  CC50 at 5 days: 11000 nM
HIV-IIIb
  inhibition at 2 µM: 0%

## CNC(=O)c1cccc(-c2cccnc2[C@H](Cc2cc(F)cc(F)c2)NC(=O)Cc2c[nH]c3ccc(O)cc23)c1 [Example 46, (S)-3-(2-(2-(3,5-difluorophenyl)-1-(2-(5-hydroxy-1H-indol-3-yl)acetamido)ethyl)pyridin-3-yl)-N-methylbenzamide]
In vitro
  CC50 at 5 days: > 53000 nM
HIV-IIIb
  inhibition at 2 µM: 87%

## CC(C)Cc1cc(C(F)(F)F)nn1CC(=O)N[C@@H](Cc1cc(F)cc(F)c1)c1ncccc1-c1ccc(F)c(C(N)=O)c1 [Example 207C, (S)-5-(2-(2-(3,5-difluorophenyl)-1-(2-(5-isobutyl-3-(trifluoromethyl)-1H-pyrazol-1-yl)acetamido)ethyl)pyridin-3-yl)-2-fluorobenzamide]
In vitro
  CC50 at 5 days: 13200 nM
HIV-IIIb
  inhibition at 2 µM: 16%

## CS(=O)(=O)c1ccc(-c2cccnc2[C@H](Cc2cc(F)cc(F)c2)NC(=O)Cn2nc(C(F)(F)F)c3c2CCCC3)cc1 [Example 425, (S)—N-(2-(3,5-difluorophenyl)-1-(3-(4-(methylsulfonyl)phenyl)pyridin-2-yl)ethyl)-2-(3-(trifluoromethyl)-4,5,6,7-tetrahydro-1H-indazol-1-yl)acetamide]
In vitro
  CC50 at 5 days: 15600 nM
HIV-IIIb
  inhibition at 2 µM: 85%

## CC1(C)OB(c2cn(CC(=O)N[C@@H](Cc3cc(F)cc(F)c3)c3ncccc3-c3ccc(F)c(C(N)=O)c3)nc2C(F)(F)F)OC1(C)C [Example 451B, (S)-5-(2-(2-(3,5-difluorophenyl)-1-(2-(4-(4,4,5,5-tetramethyl-1,3,2-dioxaborolan-2-yl)-3-(trifluoromethyl)-1H-pyrazol-1-yl)acetamido)ethyl)pyridin-3-yl)-2-fluorobenzamide]
In vitro
  CC50 at 5 days: 37100 nM
HIV-IIIb
  inhibition at 2 µM: 1%

## O=C(Cn1nc(C(F)F)c2c1C(F)(F)C1CC21)N[C@@H](Cc1cc(F)cc(F)c1)c1ncccc1-c1cncc2ccccc12 (stereo partly drawn) [Example 120, 2-(3-(difluoromethyl)-5,5-difluoro-3b,4,4a,5-tetrahydro-1H-cyclopropa[3,4]cyclopenta[1,2-c]pyrazol-1-yl)-N—((S)-2-(3,5-difluorophenyl)-1-(3-(isoquinolin-4-yl)pyridin-2-yl)ethyl)acetamide]
In vitro
  CC50 at 5 days: 13800 nM
HIV-IIIb
  inhibition at 2 µM: 73%

## O=C(Cc1c[nH]c2ccc(F)cc12)N[C@H](Cc1cc(F)cc(F)c1)c1ncncc1-c1ccc(Cl)cc1 [Example 293, (R)—N-(1-(5-(4-chlorophenyl)pyrimidin-4-yl)-2-(3,5-difluorophenyl)ethyl)-2-(5-fluoro-1H-indol-3-yl)acetamide]
In vitro
  CC50 at 5 days: 11200 nM
HIV-IIIb
  inhibition at 2 µM: 44%

## COc1ccc2cccc(CC(=O)N[C@@H](Cc3cc(F)cc(F)c3)c3ncccc3-c3ccc(F)c(C#N)c3)c2c1 [Example 373, (S)—N-(1-(3-(3-cyano-4-fluorophenyl)pyridin-2-yl)-2-(3,5-difluorophenyl)ethyl)-2-(7-methoxynaphthalen-1-yl)acetamide]
In vitro
  CC50 at 5 days: 8140 nM
HIV-IIIb
  inhibition at 2 µM: 0%

## NC(=O)c1cc(-c2cccnc2[C@H](Cc2cccc(F)c2)NC(=O)Cc2cc(=O)[nH]c3ccccc23)ccc1F [Example 257, (S)-2-fluoro-5-(2-(2-(3-fluorophenyl)-1-(2-(2-oxo-1,2-dihydroquinolin-4-yl)acetamido)ethyl)pyridin-3-yl)benzamide]
In vitro
  CC50 at 5 days: > 53200 nM
HIV-IIIb
  inhibition at 2 µM: 7%

## NC(=O)c1cc(-c2cccnc2[C@H](Cc2cc(F)cc(F)c2)NC(=O)Cc2c[nH]c3ccc(O)cc23)ccc1Cl [Example 40, (S)-2-chloro-5-(2-(2-(3,5-difluorophenyl)-1-(2-(5-hydroxy-1H-indol-3-yl)acetamido)ethyl)pyridin-3-yl)benzamide]
In vitro
  CC50 at 5 days: > 48900 nM
HIV-IIIb
  inhibition at 2 µM: 99%

## CN1CCc2c(c(C(F)(F)F)nn2CC(=O)N[C@@H](Cc2cc(F)cc(F)c2)c2ncccc2-c2ccc(F)c(C(N)=O)c2)C1 [Example 324, (S)-5-(2-(2-(3,5-difluorophenyl)-1-(2-(5-methyl-3-(trifluoromethyl)-4,5,6,7-tetrahydro-1H-pyrazolo[4,3-c]pyridin-1-yl)acetamido)ethyl)pyridin-3-yl)-2-fluorobenzamide]
In vitro
  CC50 at 5 days: > 53200 nM
HIV-IIIb
  inhibition at 2 µM: 31%

## CCC(C(=O)N[C@@H](Cc1cc(F)cc(F)c1)c1ncccc1-c1ccc(F)c(C(N)=O)c1)n1cc(C(F)(F)F)cn1 (single isomer, unassigned) [Example 565]
In vitro
  CC50 at 5 days: 37600 nM
HIV-IIIb; percent inhibition of virus-induced cell killing, from dose response curve at 2 uM drug
  % inhibition at 2 μM: 0%

## Cc1cccc2[nH]cc(CC(=O)N[C@@H](Cc3cc(F)cc(F)c3)c3ncccc3-c3ccc(Cl)cc3)c12 [Example 534, (S)—N-(1-(3-(4-chlorophenyl)pyridin-2-yl)-2-(3,5-difluorophenyl)ethyl)-2-(4-methyl-1H-indol-3-yl)acetamide]
In vitro
  CC50 at 5 days: 9820 nM
HIV-IIIb
  inhibition at 2 µM: 29%

## N#Cc1cccc(-c2cccnc2[C@H](Cc2cc(F)cc(F)c2)NC(=O)Cn2ccc3ccccc32)c1 [Example 95C, (S)—N-(1-(3-(3-cyanophenyl)pyridin-2-yl)-2-(3,5-difluorophenyl)ethyl)-2-(1H-indol-1-yl)acetamide]
In vitro
  CC50 at 5 days: 14600 nM
HIV-IIIb
  inhibition at 2 µM: 14%

## NC(=O)c1cc(-c2cccnc2[C@H](Cc2cc(F)cc(F)c2)NC(=O)Cn2nc(C(F)(F)F)c3c2CNC3)ccc1F [Example 251, (S)-5-(2-(2-(3,5-difluorophenyl)-1-(2-(3-(trifluoromethyl)-5,6-dihydropyrrolo[3,4-c]pyrazol-1(4H)-yl)acetamido)ethyl)pyridin-3-yl)-2-fluorobenzamide]
In vitro
  CC50 at 5 days: > 53200 nM
HIV-IIIb
  inhibition at 2 µM: 1%

## Cc1cc(=O)n(CC(=O)N[C@@H](Cc2cc(F)cc(F)c2)c2ncccc2-c2cccc(C(N)=O)c2)c2ccccc12 [Example 321, (S)-3-(2-(2-(3,5-difluorophenyl)-1-(2-(4-methyl-2-oxoquinolin-1(2H)-yl)acetamido)ethyl)pyridin-3-yl)benzamide]
In vitro
  CC50 at 5 days: 29700 nM
HIV-IIIb
  inhibition at 2 µM: 30%

## NC(=O)c1cc(-c2cccnc2[C@H](Cc2cc(F)cc(F)c2)NC(=O)Cc2c[nH]c3ccc(Br)cc23)ccc1F [Example 445, (S)-5-(2-(1-(2-(5-bromo-1H-indol-3-yl)acetamido)-2-(3,5-difluorophenyl)ethyl)pyridin-3-yl)-2-fluorobenzamide]
In vitro
  CC50 at 5 days: 10700 nM
HIV-IIIb
  inhibition at 2 µM: 114%

## Cc1cc2[nH]cc(CC(=O)N[C@@H](Cc3cc(F)cc(F)c3)c3ncccc3-c3cccc(C(N)=O)c3)c2cc1O [Example 593, (S)-3-(2-(2-(3,5-difluorophenyl)-1-(2-(5-hydroxy-6-methyl-1H-indol-3-yl)acetamido)ethyl)pyridin-3-yl)benzamide]
In vitro
  CC50 at 5 days: > 53000 nM
HIV-IIIb
  inhibition at 2 µM: 52%
